Assay [1] deals with T1, Acetylcholinesterase (Mus musculus) (UniProt P21836).
T1 sequence (whole entry): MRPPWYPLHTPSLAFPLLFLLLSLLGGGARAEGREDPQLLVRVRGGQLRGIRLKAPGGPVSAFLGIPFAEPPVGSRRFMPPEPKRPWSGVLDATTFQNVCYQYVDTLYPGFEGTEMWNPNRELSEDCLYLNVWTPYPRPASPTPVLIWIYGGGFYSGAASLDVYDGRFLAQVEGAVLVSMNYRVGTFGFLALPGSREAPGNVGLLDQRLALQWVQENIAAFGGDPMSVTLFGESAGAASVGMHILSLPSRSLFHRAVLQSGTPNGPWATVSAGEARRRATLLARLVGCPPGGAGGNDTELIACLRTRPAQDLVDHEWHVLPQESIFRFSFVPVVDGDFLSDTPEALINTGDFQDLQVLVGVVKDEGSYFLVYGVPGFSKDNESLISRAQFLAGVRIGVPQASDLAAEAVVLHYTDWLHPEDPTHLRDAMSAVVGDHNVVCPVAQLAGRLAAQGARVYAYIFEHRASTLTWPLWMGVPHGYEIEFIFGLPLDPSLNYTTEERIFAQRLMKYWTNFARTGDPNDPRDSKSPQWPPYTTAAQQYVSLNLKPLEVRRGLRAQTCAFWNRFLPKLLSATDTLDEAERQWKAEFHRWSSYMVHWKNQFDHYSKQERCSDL
In words: Inhibition of AchE in albino LACA mouse brain at 10^-3 M using acetylthiocholine iodide as substrate incubated for 10 mins measured for 2 mins by Ellman's method relative to control. (In Ellman's method for cholinesterases, released thiocholine reacts with DTNB.)

In assay [2] the target is T1, Acetylcholinesterase (Mus musculus). As to conditions: Brain, at 10 µM.
Assay [3] has the same target. As to conditions: Brain, at 50 µM.
In assay [4] the test system is Mus musculus. In words: Cognition enhancing effect in albino mouse assessed as reversal of scopolamine-induced memory deficit by measuring latency time at 0.5 mg/kg, ip treated 5 mins post scopolamine challenge by step down passive avoidance test (reference value: 68.16 +/- 0.4 sec). The class given is functional.
Assay [5] concerns Mus musculus. In words: Cognition enhancing effect in albino mouse assessed as reversal of scopolamine-induced memory deficit by measuring basal latency time at 0.5 mg/kg, ip treated 5 mins post scopolamine challenge by step down passive avoidance test (reference value: 63.93 +/- 2.6 sec). In kind it is functional.
The target of assay [6] is T1, Acetylcholinesterase (Mus musculus). As to conditions: Brain, at 5 µM.
Assay [7] has as its system Mus musculus. In words: Cognition enhancing effect in albino mouse assessed as reversal of scopolamine-induced memory deficit by measuring reduction in number of mistake at 0.5 mg/kg, ip treated 5 mins post scopolamine challenge by step down passive avoidance test. In kind it is functional, organism-based.
Assay [8] concerns the target T2, Acetylcholinesterase (Mus musculus, UniProt P21836).
T2 sequence (P21836 whole entry): T1 sequence (whole entry)
The arrangement: species or system LACA.

Assay [9] has as its target T1, Acetylcholinesterase (Mus musculus). As to conditions: Brain, at 25 µM.
For assay [10] the target is unchanged. As to conditions: Brain, at 1 µM.

Calls of active or inactive are those of the source. The calls are words filed in the database; no cut-off is given here.

Take `COc1cc2c(cc1OC)C(=O)C(CC1CCN(CC(=O)Nc3ccc(C)cc3)CC1)C2` (stereo not given): in assay [1], the inhibition (as a rule, the drop in the measured response relative to a control, in per cent) was found to be 13.9%.

Compound `COc1ccc(NC(=O)CN2CCC(CC3Cc4cc(OC)c(OC)cc4C3=O)CC2)cc1OC` (stereo not given) displayed an inhibition in assay [1] of 7.33%.

With `O=C(Oc1cccc(/C=C2\Cc3ccccc3C2=O)c1)c1cccc(OC(F)(F)F)c1`, the inhibition in [2] amounted to 64.6%; in assay [3], 78.2%; in assay [6] it was 72.1%; in assay [9], 91.7%; in [10], 73.6%. Besides, the Time in assay [4] came out at 12.01 s; in assay [5], 27.67 s. For the same compound, in assay [7], the result was Active. In addition, the IC50 – broadly, the point on the concentration scale where inhibition reaches its midpoint – in [8] is 12.3 µM.

For `O=C(Oc1cccc(/C=C2\Cc3ccccc3C2=O)c1)c1ccc(CCl)cc1`, the inhibition in assay [2] was 65.3%; in [3] it was 53.3%; in assay [6], 66.1%; in assay [9], 56.3%; in assay [10] it was 67.6%. For the same compound, the Time in assay [4] was determined as 8.11 s; in assay [5], 14.82 s. Moreover, the outcome in [7] was Active. Moreover, the IC50 in assay [8] was 79.7 µM.

Regarding `O=C(Oc1cccc(/C=C2\Cc3ccccc3C2=O)c1)c1ccccc1`, the inhibition in [2] came out at 37.1%; in assay [3], 67.7%; in assay [6], 27.4%; in assay [9], 48.4%; in assay [10], 30.6%. Besides, the Time in assay [4] is given as 10.01 s; in assay [5] it was 16.01 s. In [7], the result was Active. Besides, half-maximal inhibition in assay [8] (IC50) was put at 34.3 µM.

`COc1ccc(NC(=O)CN2CCC(CC3Cc4cc(OC)c(OC)cc4C3=O)CC2)cc1` (stereo not given): in assay [1], the inhibition was found to be 12.8%.

For `O=C(Oc1cccc(/C=C2\Cc3ccccc3C2=O)c1)c1cc(C(F)(F)F)cc(C(F)(F)F)c1`, the inhibition is 53.2% in assay [2]; 67.7% in assay [3]; 46.8% in [6]; 59.7% in assay [9]; 38.7% in assay [10]. Moreover, the Time in assay [4] stood at 6.98 s; in [5] it was 12.63 s. Further, the outcome in assay [7] was Active. The compound further came in with an IC50 in [8] of 12 µM.

As to `COc1cc2c(cc1OC)C(=O)C(CC1CCN(CC(=O)Cc3nc4ccc([N+](=O)[O-])cc4s3)CC1)C2` (stereo not given), the inhibition in [1] was 5.9%.

In assay [1], `COc1cc2c(cc1OC)C(=O)C(CC1CCN(CC(=O)Cc3nc4ccccc4s3)CC1)C2` (stereo not given) showed an inhibition of 4.62%.

For the compound `COc1cc2c(cc1OC)C(=O)C(CC1CCN(CC(=O)Nc3ccc(Cl)cc3)CC1)C2` (stereo not given), the inhibition in [1] is 2.74%.

Compound `COc1cc2c(cc1OC)C(=O)C(CC1CCN(CC(=O)Cc3nc4cc(OC)c(OC)cc4s3)CC1)C2` (stereo not given) gave an inhibition in [1] of 3.2%.

On to `O=C(Oc1cccc(/C=C2\Cc3ccccc3C2=O)c1)c1cccc(CCl)c1`, for which the inhibition came to 56.3% in assay [2]; 59.3% in assay [3]; 70.6% in [6]; 72.9% in assay [9]; 75.9% in assay [10]. The Time in [4] was determined as 11.65 s; in [5], 20.86 s. Further, the outcome in [7] was Active. In assay [8], this compound gave an IC50 of 27.1 µM.

Regarding `COc1cc(C(=O)Oc2cccc(/C=C3\Cc4ccccc4C3=O)c2)cc(OC)c1OC`, the inhibition in assay [2] is 72.1%; in assay [3] it was 32.9%; in [6] it was 32.2%; in [9], 78.9%; in assay [10] it was 69.1%. In addition, the Time in [4] is given as 6.08 s; in [5], 13.81 s. The result in [7] was Active. Besides, the IC50 in [8] came to 14.1 µM.

`O=C(Oc1cccc(/C=C2\Cc3ccccc3C2=O)c1)c1ccccc1F`: the inhibition in [2] turned out to be 40.5%; in assay [3] it was 32.9%; in [6], 48.8%; in assay [9], 35.2%; in assay [10], 80.4%. Also, the Time is recorded as 5.9 s in [4] and 13.72 s in [5]. In addition, the outcome in [7] was Active. Moreover, half-maximal inhibition in [8] (IC50) required 14.1 µM.

As to `O=C(Oc1cccc(/C=C2\Cc3ccccc3C2=O)c1)c1cc(Cl)cc(Cl)c1`, the inhibition was determined as 33.9% in [2]; 51.6% in [3]; 41.9% in assay [6]; 43.5% in assay [9]; 37% in assay [10]. Also, the Time in assay [4] is listed as 12.65 s; in assay [5] it was 19.86 s. Further, the outcome in assay [7] was Active. In assay [8], this compound yielded an IC50 of 43.3 µM.

In [1], `COc1ccc2nc(CC(=O)CN3CCC(CC4Cc5cc(OC)c(OC)cc5C4=O)CC3)sc2c1` (stereo not given) displayed an inhibition of 3.72%.

For `COc1ccc(C(=O)Oc2cccc(/C=C3\Cc4ccccc4C3=O)c2)cc1`, the inhibition was determined as 33.9% in [2]; 48.4% in assay [3]; 32.2% in assay [6]; 41.9% in assay [9]; 30.6% in assay [10]. The Time in [4] is reported as 7.11 s; in assay [5], 14.82 s. In assay [7], the outcome was Active. The compound further came in with an IC50 in [8] of 38.9 µM.

Compound `COc1cc2c(cc1OC)C(=O)C(CC1CCN(CC(=O)Cc3nc4ccc(F)cc4s3)CC1)C2` (stereo not given) showed an inhibition in assay [1] of 1.24%.

In [1], `COc1cc2c(cc1OC)C(=O)C(CC1CCN(CC(=O)Cc3nc4ccc(C)cc4s3)CC1)C2` (stereo not given) registered an inhibition of 5.82%.

Take `COc1cc2c(cc1OC)C(=O)C(CC1CCN(CC(=O)Cc3nc4ccc(Cl)cc4s3)CC1)C2` (stereo not given): in assay [1], the inhibition was 2.13%.

Turning to `O=C(Oc1cccc(/C=C2\Cc3ccccc3C2=O)c1)c1ccc(F)cc1`, the inhibition in assay [2] is 38.7%; in assay [3], 54.8%; in assay [6], 35.5%; in assay [9], 51.6%; in assay [10] it was 33.9%. For the same compound, the Time came out at 9.9 s in assay [4] and 22.06 s in [5]. Besides, the result in assay [7] was Active. Moreover, the IC50 in assay [8] came to 40.6 µM.

With `O=C(Oc1cccc(/C=C2\Cc3ccccc3C2=O)c1)c1ccc([N+](=O)[O-])cc1`, the inhibition in assay [2] is 65.3%; in [3], 51%; in assay [6], 68.3%; in [9] it was 60.8%; in assay [10], 72.1%. The results for the Time in [4] and in assay [5] were 7.98 s and 14.23 s, respectively. Besides, the outcome in assay [7] was Active. In assay [8], this compound came in with an IC50 of 48.8 µM.

Turning to `COc1cc2c(cc1OC)C(=O)C(CC1CCN(Cc3ccccc3)CC1)C2` (stereo not given) [DONEPEZIL], the values for the Time in assay [4] and in [5] were 11.52 s and 17.67 s, respectively. For the same compound, the result in assay [7] was Active.

`COc1cc2c(cc1OC)C(=O)C(CC1CCN(CC(=O)Nc3ccc([N+](=O)[O-])cc3)CC1)C2` (stereo not given) returned an inhibition in [1] of 8.67%.

For the compound `COc1cc2c(cc1OC)C(=O)C(CC1CCN(CC(=O)Nc3ccc(F)cc3)CC1)C2` (stereo not given), the inhibition in assay [1] amounted to 6.19%.

The record behind these values is ChEMBL document CHEMBL4177716, “Design, synthesis and pharmacological evaluation of some novel indanone derivatives as acetylcholinesterase inhibitors for the management of cognitive dysfunction” (Bioorg Med Chem, 2018).
